# Assay results reported in ChEMBL document CHEMBL5724914, “Linking interpersonal differences in gut microbiota composition and drug biotransformation activity” (2024).
# Conditions: human gut metagenome, 24 h, 2 µM
# Further: call rule not given here.
row,Compound,Bacterial Biotransformation
1,Cc1ccccc1N1C(=O)c2cc(S(N)(=O)=O)c(Cl)cc2NC1C (stereo not given) [METOLAZONE],Compound metabolized
2,CC(C)(C#N)c1cc(Cn2cncn2)cc(C(C)(C)C#N)c1 [ANASTROZOLE],Compound metabolized
3,CNS(=O)(=O)Cc1ccc2[nH]cc(CCN(C)C)c2c1.O=C(O)CCC(=O)O [SUMATRIPTAN SUCCINATE],Compound metabolized
4,CC[C@@H](CO)NC(=O)[C@@H]1C=C2c3cccc4c3c(cn4C)C[C@H]2N(C)C1.O=C(O)/C=C\C(=O)O [METHYSERGIDE MALEATE],Compound NOT metabolized
5,CCOC(=O)[C@H](CCc1ccccc1)N[C@@H](C)C(=O)N1[C@H](C(=O)O)C[C@H]2CCCC[C@@H]21 [TRANDOLAPRIL],Compound metabolized

# Experiment: (§1) The drug is tested on WLS-006 corresponding to human gut metagenome with ENA study accession number: PRJEB37062 and ENA sample accession number: ERS12561741 for biotransformation under anaerobic condition. The drug concentrations were measured over 9 timepoints collected between 0 and 24 hours of incubation by liquid-chromatography-coupled mass spectrometry (LC–MS)
# Conditions: 2 µM
row,Compound,Bacterial Biotransformation
1,Cc1ccccc1N1C(=O)c2cc(S(N)(=O)=O)c(Cl)cc2NC1C (stereo not given) [METOLAZONE],Compound NOT metabolized
2,CC(C)(C#N)c1cc(Cn2cncn2)cc(C(C)(C)C#N)c1 [ANASTROZOLE],Compound NOT metabolized
3,CNS(=O)(=O)Cc1ccc2[nH]cc(CCN(C)C)c2c1.O=C(O)CCC(=O)O [SUMATRIPTAN SUCCINATE],Compound NOT metabolized
4,CC[C@@H](CO)NC(=O)[C@@H]1C=C2c3cccc4c3c(cn4C)C[C@H]2N(C)C1.O=C(O)/C=C\C(=O)O [METHYSERGIDE MALEATE],Compound NOT metabolized
5,CCOC(=O)[C@H](CCc1ccccc1)N[C@@H](C)C(=O)N1[C@H](C(=O)O)C[C@H]2CCCC[C@@H]21 [TRANDOLAPRIL],Compound metabolized

# Conditions: human gut metagenome, 24 h, 2 µM
# Remark: another data set of the same source
row,Compound,Bacterial Biotransformation
1,Cc1ccccc1N1C(=O)c2cc(S(N)(=O)=O)c(Cl)cc2NC1C (stereo not given) [METOLAZONE],Compound NOT metabolized
2,CC(C)(C#N)c1cc(Cn2cncn2)cc(C(C)(C)C#N)c1 [ANASTROZOLE],Compound NOT metabolized
3,CNS(=O)(=O)Cc1ccc2[nH]cc(CCN(C)C)c2c1.O=C(O)CCC(=O)O [SUMATRIPTAN SUCCINATE],Compound NOT metabolized
4,CC[C@@H](CO)NC(=O)[C@@H]1C=C2c3cccc4c3c(cn4C)C[C@H]2N(C)C1.O=C(O)/C=C\C(=O)O [METHYSERGIDE MALEATE],Compound NOT metabolized
5,CCOC(=O)[C@H](CCc1ccccc1)N[C@@H](C)C(=O)N1[C@H](C(=O)O)C[C@H]2CCCC[C@@H]21 [TRANDOLAPRIL],Compound metabolized

# Conditions: human gut metagenome, 24 h, 2 µM
# Remark: another data set of the same source
row,Compound,Bacterial Biotransformation
1,Cc1ccccc1N1C(=O)c2cc(S(N)(=O)=O)c(Cl)cc2NC1C (stereo not given) [METOLAZONE],Compound NOT metabolized
2,CC(C)(C#N)c1cc(Cn2cncn2)cc(C(C)(C)C#N)c1 [ANASTROZOLE],Compound NOT metabolized
3,CNS(=O)(=O)Cc1ccc2[nH]cc(CCN(C)C)c2c1.O=C(O)CCC(=O)O [SUMATRIPTAN SUCCINATE],Compound NOT metabolized
4,CC[C@@H](CO)NC(=O)[C@@H]1C=C2c3cccc4c3c(cn4C)C[C@H]2N(C)C1.O=C(O)/C=C\C(=O)O [METHYSERGIDE MALEATE],Compound NOT metabolized
5,CCOC(=O)[C@H](CCc1ccccc1)N[C@@H](C)C(=O)N1[C@H](C(=O)O)C[C@H]2CCCC[C@@H]21 [TRANDOLAPRIL],Compound metabolized

# Conditions: human gut metagenome, 24 h, 2 µM
# Remark: another data set of the same source
row,Compound,Bacterial Biotransformation
1,Cc1ccccc1N1C(=O)c2cc(S(N)(=O)=O)c(Cl)cc2NC1C (stereo not given) [METOLAZONE],Compound metabolized
2,CC(C)(C#N)c1cc(Cn2cncn2)cc(C(C)(C)C#N)c1 [ANASTROZOLE],Compound metabolized
3,CNS(=O)(=O)Cc1ccc2[nH]cc(CCN(C)C)c2c1.O=C(O)CCC(=O)O [SUMATRIPTAN SUCCINATE],Compound metabolized
4,CC[C@@H](CO)NC(=O)[C@@H]1C=C2c3cccc4c3c(cn4C)C[C@H]2N(C)C1.O=C(O)/C=C\C(=O)O [METHYSERGIDE MALEATE],Compound NOT metabolized
5,CCOC(=O)[C@H](CCc1ccccc1)N[C@@H](C)C(=O)N1[C@H](C(=O)O)C[C@H]2CCCC[C@@H]21 [TRANDOLAPRIL],Compound metabolized

# Experiment: as §1, with “WLS-077” for “WLS-006”, “ERS12561750” for “ERS12561741”
# Conditions: 2 µM
row,Compound,Bacterial Biotransformation
1,Cc1ccccc1N1C(=O)c2cc(S(N)(=O)=O)c(Cl)cc2NC1C (stereo not given) [METOLAZONE],Compound NOT metabolized
2,CC(C)(C#N)c1cc(Cn2cncn2)cc(C(C)(C)C#N)c1 [ANASTROZOLE],Compound NOT metabolized
3,CNS(=O)(=O)Cc1ccc2[nH]cc(CCN(C)C)c2c1.O=C(O)CCC(=O)O [SUMATRIPTAN SUCCINATE],Compound NOT metabolized
4,CC[C@@H](CO)NC(=O)[C@@H]1C=C2c3cccc4c3c(cn4C)C[C@H]2N(C)C1.O=C(O)/C=C\C(=O)O [METHYSERGIDE MALEATE],Compound NOT metabolized
5,CCOC(=O)[C@H](CCc1ccccc1)N[C@@H](C)C(=O)N1[C@H](C(=O)O)C[C@H]2CCCC[C@@H]21 [TRANDOLAPRIL],Compound metabolized

# Conditions: human gut metagenome, 24 h, 2 µM
# Remark: another data set of the same source
row,Compound,Bacterial Biotransformation
1,Cc1ccccc1N1C(=O)c2cc(S(N)(=O)=O)c(Cl)cc2NC1C (stereo not given) [METOLAZONE],Compound NOT metabolized
2,CC(C)(C#N)c1cc(Cn2cncn2)cc(C(C)(C)C#N)c1 [ANASTROZOLE],Compound NOT metabolized
3,CNS(=O)(=O)Cc1ccc2[nH]cc(CCN(C)C)c2c1.O=C(O)CCC(=O)O [SUMATRIPTAN SUCCINATE],Compound NOT metabolized
4,CC[C@@H](CO)NC(=O)[C@@H]1C=C2c3cccc4c3c(cn4C)C[C@H]2N(C)C1.O=C(O)/C=C\C(=O)O [METHYSERGIDE MALEATE],Compound NOT metabolized
5,CCOC(=O)[C@H](CCc1ccccc1)N[C@@H](C)C(=O)N1[C@H](C(=O)O)C[C@H]2CCCC[C@@H]21 [TRANDOLAPRIL],Compound metabolized

# Experiment: as §1, with “Z-009” for “WLS-006”, “pig” for “human”, “ERS12561809” for “ERS12561741”
# Conditions: 2 µM
row,Compound,Bacterial Biotransformation
1,Cc1ccccc1N1C(=O)c2cc(S(N)(=O)=O)c(Cl)cc2NC1C (stereo not given) [METOLAZONE],Compound NOT metabolized
2,CC(C)(C#N)c1cc(Cn2cncn2)cc(C(C)(C)C#N)c1 [ANASTROZOLE],Compound metabolized
3,CNS(=O)(=O)Cc1ccc2[nH]cc(CCN(C)C)c2c1.O=C(O)CCC(=O)O [SUMATRIPTAN SUCCINATE],Compound NOT metabolized
4,CC[C@@H](CO)NC(=O)[C@@H]1C=C2c3cccc4c3c(cn4C)C[C@H]2N(C)C1.O=C(O)/C=C\C(=O)O [METHYSERGIDE MALEATE],Compound NOT metabolized
5,CCOC(=O)[C@H](CCc1ccccc1)N[C@@H](C)C(=O)N1[C@H](C(=O)O)C[C@H]2CCCC[C@@H]21 [TRANDOLAPRIL],Compound metabolized

# Experiment: as §1, with “WLS-069” for “WLS-006”, “ERS12561748” for “ERS12561741”
# Conditions: 2 µM
row,Compound,Bacterial Biotransformation
1,Cc1ccccc1N1C(=O)c2cc(S(N)(=O)=O)c(Cl)cc2NC1C (stereo not given) [METOLAZONE],Compound NOT metabolized
2,CC(C)(C#N)c1cc(Cn2cncn2)cc(C(C)(C)C#N)c1 [ANASTROZOLE],Compound metabolized
3,CNS(=O)(=O)Cc1ccc2[nH]cc(CCN(C)C)c2c1.O=C(O)CCC(=O)O [SUMATRIPTAN SUCCINATE],Compound metabolized
4,CC[C@@H](CO)NC(=O)[C@@H]1C=C2c3cccc4c3c(cn4C)C[C@H]2N(C)C1.O=C(O)/C=C\C(=O)O [METHYSERGIDE MALEATE],Compound NOT metabolized
5,CCOC(=O)[C@H](CCc1ccccc1)N[C@@H](C)C(=O)N1[C@H](C(=O)O)C[C@H]2CCCC[C@@H]21 [TRANDOLAPRIL],Compound metabolized
